For assay [1], the system named is Colon Epithelium (CCD18co). As to the kind of experiment: Alamar Blue Assay. The note with it: Homo sapiens, CCD-18Co. The format is cell-based.
A further assay concerns Normal Cells. Briefly: Alamar Blue Assay, mean over normal cells. The format is cell-based. The following applies: mean of the three normal cell types; read-out: mean IC50 (X̄).
For the next assay, the system named is Skin Fibroblast (DET551). As to the kind of experiment: Alamar Blue Assay. The format is cell-based.
The test system of another assay is Breast (MDA 468). Briefly: Alamar Blue Assay. It counts as cell-based.
The test system of the next assay is Breast (MCF7). Briefly: Alamar Blue Assay. It counts as cell-based. The note with it: Homo sapiens.
Another assay deals with Sarcoma (Saos 2). Briefly: Alamar Blue Assay. The following applies: Homo sapiens. The format is cell-based.
The test system of another assay is Lung Epithelium (W138). Briefly: Alamar Blue Assay. It counts as cell-based.
The test system of the next assay is Tumor Cells. As to the kind of experiment: Alamar Blue Assay, mean over tumor cells. It counts as cell-based. The note with it: mean of the three tumor cell lines; read-out: mean IC50 (X̄).
For assay [2], the system named is H630R10 (colon cancer cell line). Briefly: Crystal violet cell proliferation assay. It counts as cell-based, human. The note with it: for IC50: Homo sapiens. How it is done: (§1) Two cell lines, H630R10 (Copur, et al. (1995)) and normal colon epithelial cells, CCD18co (ATCC) were used in these assays. The H630P (Copur et al. (1995)) cell line was selected for resistance to 10 μM 5-FU to give rise to H630R10. The characterization of these cell lines which expresses an elevated level of the TS enzyme. A normal colon epithelial cell type CCD18co (available from the ATCC) was used for comparison with H630R10 for sensitivity to test compounds.
(§2) The ability of the test compounds to block proliferation of cells was determined by the crystal violet procedure (Sugarman et al. (1985) and Antelman et al. (1995)).
(§3) Compounds were dissolved in dimethyl sulfoxide to a concentration of 1M. They were further diluted as necessary into DMEM cell culture medium, and subsequently into the first wells of the 96 Well microtiter plate. Each concentration was tested in triplicate on the target cell line. Compound concentrations from 1 μM to 3000 μM were tested. Cells were incubated with compound for 72 hours, the plates were washed, and the cells fixed with methanol and stained with crystal violet as described in Sugarman et al. ([…]) and Antelman, et al. (1995).

Assay [3] has as its system CCD18co (normal colon epithelium). Briefly: Crystal violet cell proliferation assay. It counts as cell-based, human. The note with it: for IC50: Homo sapiens, CCD-18Co. How it is done: as §1, §2, §3
Assay [4] deals with Primary Carcinoma (UT) breast cells. The following applies: 19 samples; cited from earlier work.
Assay [5] relates to Metastatic Carcinoma (Rx) breast cells. The following applies: 10 samples; cited from earlier work.
The subject of assay [6] is Metastatic Carcinoma (UT) breast cells. The note with it: 4 samples; cited from earlier work.
[7] abbreviates: Table 6, H630R10, 72 hours, standard error less than 20%.

On to `O=c1[nH]cc(F)c(=O)[nH]1` [5-Fluorouracil, 5-fluorouracil], for which the IC50 in assay [1] amounted to 0.2 µM; in the assay on Normal Cells it was 0.57 µM; in the assay with Skin Fibroblast (DET551), 1.1 µM; in the assay with Breast (MDA 468), 0.4 µM; in the assay on Breast (MCF7) it was 0.61 µM; with Sarcoma (Saos 2) it was 11.3 µM. Further, the IC50 is 0.4 µM with Lung Epithelium (W138) and 4.1 µM in the assay with Tumor Cells.
As to `O=c1[nH]c(=O)n([C@H]2C[C@H](O)[C@@H](CO)O2)cc1/C=C/Br` [BVDU, (E)-5-(2-bromovinyl)-2′-deoxyuridine], the “activity in the proliferation assay” value in assay [2] (CCD18co and H630R10, Table 6 line 2) was “little activity”. Further, the “difference in sensitivity of the two cell lines” value in assay [2] (CCD18co vs H630R10) was “no significant difference”. The IC50 in assay [2] (setting [7]) is 2880 ± 54.5 µM; in assay [3] (Table 6, CCD18co, 72 hours, standard error less than 20%), 2540 ± 58.2 µM.
As to `O=c1[nH]c(=O)n([C@H]2C[C@H](O)[C@@H](CO)O2)cc1F` [Compound 5-FUdR, 5-fluoro-2′-deoxyuridine], the IC50 in assay [2] (setting [7]) turned out to be 170 ± 2.4 µM; in assay [2] (Table 7, H630R10 (colon cancer cell line), representative data from several assays, triplicate wells) it was 170 µM; in assay [3] (Table 7, CCD18co (normal colon epithelium), representative data from several assays, triplicate wells), 9.5 µM. Further, the “fold more sensitive CCD18co than H630-R10” value in assay [3] (normal colon epithelial CCD18co vs H630-R10 colon tumor cells) is reported as “approximately 18 fold”.
As to `COc1cccc2c1C(=O)c1c(O)c3c(c(O)c1C2=O)C[C@@](O)(C(=O)CO)C[C@@H]3O[C@H]1C[C@H](N)[C@H](O)[C@H](C)O1` [Doxorubicin, doxorubicin], the “Average IC50” value in [4] is 0.0114 ± 0.0068 mg/L; in [5], 0.0198 ± 0.0127 mg/L; in [6], 0.036 ± 0.0263 mg/L.

(Values after US6339151B1, “Enzyme catalyzed therapeutic agents” (NewBiotics, Inc., priority 1998, dated 2002).)
